In patent US9764037B2, “Conjugate compounds” (Victoria Link Limited, priority 2012, dated 2017):

Columns and labels:
[1] = HPLC-ESI-MSMS quantification of α-GalCer in formulated test samples; type: physicochemical; conditions: level of α-GalCer in freshly reconstituted formulated samples
Experimental: Compounds of the invention are formulated analogously to reported methods for α-GalCer. Briefly, solubilisation of α-GalCer is based on excipient proportions described by Giaccone et al. (Giaccone, Punt et al. 2002). Thus, 100 μL of a 10 mg/mL solution of α-GalCer or a compound of the invention in 9:1 THF/MeOH is added to 1.78 mL of an aqueous solution of Tween 20 (15.9 mg), sucrose (177 mg) and L-histidine (23.8 mg). This homogeneous mixture is freeze dried and the resulting foam is stored under Ar at −18° C. This material is reconstituted with 1.0 mL of PBS or water prior to serial dilutions in PBS to achieve final injectable solutions of α-GalCer or compounds of the invention.
Quantification of the amount of α-GalCer in various test samples of compounds of the invention is made by HPLC-ESI-MSMS analysis using a Waters 2795 HPLC and a Waters Q-TOF Premier™ Tandem Mass Spectrometer. The chromatography used a Phenomenex Kinetex C18 […] 3.0×50 mm column eluting with isocratic methanol containing 10 mM ammonium formate+0.5% formic acid at a flow rate of 0.2 mL/min. α-GalCer is monitored by selective […] monitoring of 898.7 to 696.7 Da. The estimate of amount of α-GalCer is made by comparison of ion count integrals to a standard curve run on the same day or by comparison to test samples spiked with a known amount of α-GalCer. The level of α-GalCer is determined on freshly reconstituted formulated samples unless otherwise stated

[2] = system: splenic dendritic cells; assay: Impact of prior vaccination on response to free α-GalCer two weeks later, CD86 on splenic dendritic cells (FIGS. 6, 7); type: in vivo, mice; conditions: 200 ng α-GalCer intravenously two weeks after vaccination, FIGS. 6 and 7
Experimental: Flow cytometry is used to assess CD86 upregulation on splenic dendritic cells after intravenous injection of 200 ng α-GalCer, which is used as a readout of NKT cell activity. Mean fluorescence index (MFI)±SEM are presented. […] Each dot represents a different animal; mean per treatment group (n=3)±SEM are presented. ***p<0.001, **p<0.01, * p<0.05.

[3] = Ebensen, Link et al. 2007; cited from earlier work
[4] = Giaccone, Punt et al. 2002; cited from earlier work
[5] = system: T-cell; conditions: Parekh, Wilson et al. 2005; cited from earlier work
[6] = system: SIINFEKL-specific T cells; assay: Analysis of peptide-specific T cell proliferation in vivo (FIGS. 2, 5, 8, 9); parameters: species or system mice
Experimental: (SEQ ID NO:262) peptide in each case. To increase sensitivity of the assay, all mice are initially donated a cohort of 10,000 […] (SEQ ID NO:262)-specific T cells from a transgenic mouse encoding a T cell receptor for this antigen (OT-1 mice) by intravenous injection of the cells one day before the vaccines are administered. […] It is therefore possible to enumerate […] (SEQ ID NO:262)-specific T cells in blood by flow cytometry using antibodies for CD45.1 together with antibodies for the transgenic T cell receptor (Vα2). […] Control animals are injected with the diluent phosphate-buffered saline (PBS). […] Each dot represents a different animal; mean per treatment group±SEM are presented.
Accumulation of antigen-specific T cells in the blood in response to vaccination is measured 7 days later, as described for FIG. 2.
Pooled lymph node cell suspensions are prepared from animals of a cross between OT-I mice, which express a transgenic T cell receptor (TCR) specific for the ovalbumin epitope […] in the context of H-2K^b molecules, and B6.SJL-Ptprc^a Pepc^b/BoyJ mice, which are congenic with C57BL/6 mice for the CD45.1^+ marker. The samples are enriched for CD8^+ cells using antibody coated magnetic beads (Miltenyi), and then transferred into recipient mice (1×10^4 per mouse). Groups of recipient animals (n=5) are immunized with compounds of the invention one day later. Doses are chosen to provide equivalent molar values of […] peptide. Control animals receive phosphate-buffered saline. After seven days, blood samples are collected from the lateral tail vein and stained directly ex vivo with antibodies for TCR Vα2, CD45.1 and CD8 to detect the […]-specific CD8^+ T cells by flow cytometry.

[7] = system: CD11c+ dendritic cells; assay: CD86 expression on splenic dendritic cells after intravenous injection (FIG. 1); type: in vivo, C57BL/6 mice; conditions: 0.571 nmol intravenously, spleens 20 h later
Experimental: Groups of C57BL/6 mice (n=3) are injected intravenously with 0.571 nmol of the indicated compounds and then the spleens removed 20 h later for the analysis of CD86 expression on CD11c^+ dendritic cells by antibody labelling and flow cytometry. Mean fluorescence index (MFI)±SEM are presented.
Antibody staining and flow cytometry is used to examine the expression of maturation markers on dendritic cells in the spleen following injection of compounds of the invention. Splenocyte preparations are prepared by gentle teasing of splenic tissue through gauze in Iscove's Modified Dulbecco's Medium with 2 mM glutamine, 1% penicillin-streptomycin, 5×10^-5 M 2-mercapto-ethanol and 5% fetal bovine serum (all Invitrogen, Auckland, New Zealand), followed by lysis of red blood cells with RBC lysis buffer (Puregene, Gentra Systems, Minneapolis, Minn., USA). Antibody staining is performed in PBS 2% fetal bovine serum and 0.01% sodium azide. The anti-FcgRII monoclonal antibody 2.4G2 is used at […] to inhibit non-specific staining. Monoclonal antibodies (all BD Biosciences Pharmingen, San Jose, Calif., USA) are used to examine expression of the maturation markers CD40, CD80 and CD86 on CD11c+ dendritic cells.

[8] = system: leukocyte infiltration into the lungs; assay: Allergic airway inflammation in OVA-sensitized animals (FIG. 13); type: in vivo, mice; conditions: three days after challenge
Experimental: Control animals receive intranasal PBS instead of challenge, and positive control groups receive challenge but no treatment (“OVA”). The prodrug vaccines and admixed α-GalCer and peptide are administered seven days before challenge […], while the in vitro activated OVA257-specific CTL are administered one day before challenge (day 23). The total numbers of cells in BAL fluid (left), and numbers of eosinophils (right), are evaluated three days after challenge by flow cytometry.

| Compound | α-GalCer/injection [1] [ng] | DC activation (CD86 upregulation) on administration of free α-GalCer after earlier vaccination [2] | solubility [3] | efficacy in human clinical trials [4] | T-cell anergy [5] | T cell expansion on repeated administration ([6]; FIG. 8) | T cell response on boosting after priming with SIINFEKL with α-GalCer (unconjugated) ([6]; boost day 14 or 35, read day 21 or 42, blood, FIG. 9) | dependence of the T cell response on langerin+ CD8α+ DCs ([6]; depletion by diphtheria toxin, FIG. 2) | population of SIINFEKL-specific T cells (Vα2+ CD45.1+) in blood ([6]; intravenous vaccination, compared with admixed α-GalCer and peptide, lang-EGFPDTR mice, FIG. 2) | activation of DCs (expression of activation marker CD86 on splenic DCs) [7] | leukocyte infiltration into the lungs (total number of cells in BAL fluid) ([8]; vaccination of sensitized mice one week before challenge) | infiltration of eosinophils (BAL fluid) ([8]; vaccination seven days before challenge) |
| --- | --- | --- | --- | --- | --- | --- | --- | --- | --- | --- | --- | --- |
| CCCCCCCCCCCCCCCCCCCCCCCCCC(=O)OC(CCCCCCCCCCCCCC)C(O)C(COC1OC(CO)C(O)C(O)C1O)NC(=O)OCc1ccc(NC(=O)C(CCCNC(N)=O)NC(=O)C(NC(=O)OCc2ccccc2)C(C)C)cc1 [CN165, (2S,3S,4R)-1-O-α-D-Galactopyranosyl-4-O-hexacosanoyl-2-(N-Cbz-Val-Cit-4-aminobenzyloxycarbonylamino) octadecane-1,3,4-triol] | 0.028 | some DC activation |  |  |  |  |  |  |  |  |  |  |
| CCCCCCCCCCCCCCCCCCCCCCCCCC(=O)OC(CCCCCCCCCCCCCC)C(O)C(COC1OC(CO)C(O)C(O)C1O)NC(=O)OCc1ccc(NC(=O)C(CCCCN)NC(=O)C(Cc2ccccc2)NC(=O)OCc2ccccc2)cc1 [CN166, (2S,3S,4R)-1-O-α-D-Galactopyranosyl-4-O-hexacosanoyl-2-(N-Cbz-Phe-Lys-4-aminobenzyloxycarbonylamino) octadecane-1,3,4-triol] | 0.136 | some DC activation |  |  |  |  |  |  |  |  |  |  |
| CCCCCCCCCCCCCCCCCCCCCCCCCC(=O)N[C@@H](CO[C@H]1O[C@H](CO)[C@H](O)[C@H](O)[C@H]1O)[C@H](O)[C@H](O)CCCCCCCCCCCCCC [α-GalCer, α-Galactosylceramide] |  | no measurable activation of DCs | poor solubility | lack of efficacy | promotion of T-cell anergy |  |  |  |  |  |  |  |
| (2S,3S,4R)-1-O-α-D-Galactopyranosyl-4-hexacosanoyl-2-((4-(2-(FFRKSIINFEKL)-2-oxoethoxy)imino)pentanoyloxy)methoxycarbonylamino) octadecane-1,3,4-triol [CN152] | 0.05 | some DC activation |  |  |  | induces further T cell expansion | induces measurable T cell responses | dependent on langerin^+ CD8α^+ DCs | larger population of peptide-specific T cells | potently activates DCs | significantly suppress leukocyte infiltration into the lungs | superior to both CN178 and admixed groups |
